Test results reported in patent US20150119388A1, “NOVEL PRO- AND CODRUG DERIVATIVES FOR NANOPARTICLE DELIVERY OF SELECT ANTICANCER AGENTS FORMED USING RAPIDLY CLEAVABLE PHENOLIC ESTER BRIDGES” (THE CHILDREN'S HOSPITAL OF PHILADELPHIA, priority 2012, published 2015).

What was measured:
[1] = system: SY5Y-TrkB human neuroblastoma cells; test: Tumor growth inhibition in the murine xenograft model of neuroblastoma; assay type: in vivo, athymic nu/nu mice; details: three weeks
Description: For xenograft studies, athymic nu/nu mice (nine animals per group) were injected in the flank with 10^7 SY5Y-TrkB human neuroblastoma cells in 0.3 mL […]™ matrix (BD Biosciences, Franklin Lakes, N.J.). Treatment was started when the average SY5Y-TrkB tumor size was 0.2 cm^3. Nanoparticles were administered intravenously through the tail vein twice a week at a dose equivalent to 10 mg/kg of SN-38 per injection for comparison against a ‘no treatment’ control and a clinically used irinotecan formulation (CAMPTOSAR®, Pfizer, given orally five times a week at a therapeutically relevant dose of 10 mg/kg as described in Thompson J. et al., Efficacy of oral irinotecan against neuroblastoma xenografts, Anticancer Drugs. 1997 April; 8(4):313-22). Tumor size in each group was measured daily over a period of three weeks. […] The error bars in FIG. 2A represent standard deviations.
Tumor growth inhibition by PLA-PEG nanoparticles loaded with an SN-38 conjugate with tocopherol succinate (made according to Example 7) was administered over 4 weeks at indicated dose regimens (each injection equivalent to 10 mg SN-38/kg) to animals xenografted as in Example 8. The effect is shown in comparison to irinotecan administered 5 times a week for 4 weeks at the same dose per injection. Animals were sacrificed after their tumors reached 3 cm^3. […]

[2] = system: carboxylesterase; details: carboxylesterase-mediated; rest eliminated through alternative pathways; cited from earlier work

SMILES: CCc1c2c(nc3ccc(OC(=O)N4CCC(N5CCCCC5)CC4)cc13)-c1cc3c(c(=O)n1C2)COC(=O)[C@]3(O)CC [irinotecan]
- efficacy on tumor size (FIG. 2A) ([1]; CAMPTOSAR given orally five times a week at 10 mg/kg (50 mg/kg per week)): showed efficacy vs. ‘no treatment’ control
- animal survival (FIG. 2B) ([1]; CAMPTOSAR given orally five times a week at 10 mg/kg, vs 'no treatment' control): significantly improved animal survival compared with the control group
- rate of conversion to the pharmacologically active SN-38 [2]: less than 10%
